Experimental findings from patent US20230210755A1, “FUNCTIONAL SKIN COATING POLYMER” (The Johns Hopkins University, priority 2020, published 2023) are described below.

This data set can be described thus: Extractables and leachables from UV absorber containing films in synthetic perspiration, quantitative 1H NMR. Conditions: control: UV filter post-added to extract of Comparative 1 film just prior to concentration (recovery). It counts as physicochemical. Here is the method: The films described hereinabove, including the comparative example were further characterized for their ability to retain their UV-filtering components under pseudo-physiological conditions with the potential to extract unbound or otherwise mobile UV-filtering compounds. In general, films were immersed in a gently agitated solution of artificial perspiration for 24 hours at room temperature. Following removal of the films, a small amount of dimethylsulfone was added to each extract solution before it was concentrated to dryness under vacuum (65° C./0 torr). The resulting residues were then taken up in DMSO-d6 and analyzed by quantitative ^1H NMR against the added internal standard (dimethylsulfone). The method was validated by control samples, which were prepared by spiking the extracts derived from silicone films made without UV-filtering compounds, with known amounts of UV-filtering compounds immediately prior to concentration under vacuum.
20-mL screw cap borosilicate vials were charged with 10 g of synthetic perspiration (purchased from Reagents). […] Samples were then analyzed using a Bruker 400 MHz NMR spectrometer. Quantitative determination of the extracted UV filter(s) was then made by comparing the relative integration of distinct resonances derived from the UV filtering compound(s) against that of the internal standard (dimethylsulfone).

Consider `CCCCC(CC)COC(=O)C=Cc1ccc(OC)cc1` (stereo not shown) [Octinoxate], for which the “UV filter found by 1H NMR” value is on record as 98%.
